Test [1] deals with T1, D2-like dopamine receptors (Rattus norvegicus, UniProt P61169).
T1 construct: Striatal tissue from the brains of male Charles River CD rats; from tissue; host or cells: rat striatum (male Charles River CD rats), crude membrane pellet
Put plainly: inhibition of tritiated (S)-sulpiride binding to D2-like dopamine receptors, rat striatal tissue. As to conditions: 4° C., 40 minutes, pH 7.7. Details: species or system male Charles River CD rats.

The next test has as its target T2, 5-HT1A (Rattus norvegicus, UniProt P19327).
T2 construct: Hippocampal tissue from the brains of male Charles River CD rats; from tissue; host or cells: rat hippocampus (male Charles River CD rats), crude membrane pellet
T2 sequence (P19327 1-422): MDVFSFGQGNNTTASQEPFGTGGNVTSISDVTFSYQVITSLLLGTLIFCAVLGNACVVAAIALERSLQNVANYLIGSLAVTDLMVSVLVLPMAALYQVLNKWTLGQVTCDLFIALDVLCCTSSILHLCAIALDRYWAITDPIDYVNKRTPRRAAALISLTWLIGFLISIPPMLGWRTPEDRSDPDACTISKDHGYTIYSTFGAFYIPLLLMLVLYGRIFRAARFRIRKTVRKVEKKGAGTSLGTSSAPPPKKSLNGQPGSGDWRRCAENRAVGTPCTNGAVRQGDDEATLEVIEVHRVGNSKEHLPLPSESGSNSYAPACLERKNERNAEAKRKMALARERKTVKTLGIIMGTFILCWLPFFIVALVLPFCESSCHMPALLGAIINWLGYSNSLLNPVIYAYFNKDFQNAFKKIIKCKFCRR
Put plainly: inhibition of tritiated ligand ([3H]8-OH-DPAT) binding to 5-HT1A receptors, rat hippocampal tissue. Details: species or system male Charles River CD rats. The note with it: at 10^-6 M, read-out: % displacement of specific binding, 5-HT1A.

Structures are written as SMILES.

T1 sequence (P61169 whole entry): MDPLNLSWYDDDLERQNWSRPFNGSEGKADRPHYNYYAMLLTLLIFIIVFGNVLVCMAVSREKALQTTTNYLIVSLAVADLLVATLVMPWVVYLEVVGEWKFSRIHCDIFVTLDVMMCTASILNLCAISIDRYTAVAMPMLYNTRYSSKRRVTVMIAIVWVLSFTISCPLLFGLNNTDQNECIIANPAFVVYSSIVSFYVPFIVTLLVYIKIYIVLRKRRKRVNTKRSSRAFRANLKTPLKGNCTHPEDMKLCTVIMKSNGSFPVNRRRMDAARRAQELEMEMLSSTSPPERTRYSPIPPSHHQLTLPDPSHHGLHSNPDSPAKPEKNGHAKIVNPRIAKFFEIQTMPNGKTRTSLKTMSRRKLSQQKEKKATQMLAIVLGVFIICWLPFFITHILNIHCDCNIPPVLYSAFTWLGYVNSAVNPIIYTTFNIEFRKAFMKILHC

One may read the Ki as a dissociation constant, usually derived from enzyme kinetics or from competition with a known ligand. High values mean a looser hold on the target, low ones a stronger hold on the target. Regarding `O=S(=O)(NCC1CCN(C[C@H]2COc3ccc(Cl)cc3O2)CC1)c1ccc(C(F)(F)F)cc1Cl` [Example 17, (S)-2-Chloro-N-{[1-(7-chloro-1,4-benzodioxan-2-ylmethyl)-4-piperidyl]methyl}-4-trifluoromethylbenzenesulphonamide], in test [1], the affinity corresponds to a Ki of 519 nM. Moreover, the inhibition at 1 µM at 5-HT1A is 88%.

Source of the values: US6136825A, “Sulfonamide compounds having 5-HT receptor activity” (Knoll Aktiengesellschaft, priority 1996, dated 2000).
